Data taken from US9969744B2, “Compounds for use in cognition improvement” (FUNDACIÓN PARA LA INVESTIGACIÓN MÉDICA APLICADA, priority 2014, dated 2018).

Experiments:
[1] = target: T1, PDE5A1 (Homo sapiens, UniProt O76074); assay: PDE enzyme activity assay (HTRF cGMP), PDE5A; assay type: biochemical; details: recombinant enzyme; read-out: PDE5A1 inhibition (IC50)
T1 construct: they are full-length with N-terminal GST tag; GST (N); purchased BPS Biosciences 60050; host or cells: baculovirus infected Sf9 cells

[2] = tested on: acetylated histone 3 at Lys9 (AcH3K9); assay: HDAC activity using SHSY-5Y cell line (Western blot, histone 3 acetylation); assay type: cell-based, human; details: SHSY-5Y cells, 24 hours
Protocol: HDAC inhibition leads to the corresponding functional response, increase in AcH3 level. Therefore, the cellular assay to conclude HDAC activity was assessed by Western blot analysis using specific antibodies against acetylated histone 3 at Lys9 (AcH3K9). Cell cultures were treated at 100 nM, 500 nM, 1 μM and/or 5 μM with compounds of the invention or known PDE inhibitors during 24 hours and, Table 1 (below) describes the functional activity: histone 3 acetylation level (AcH3) vs basal (no treatment).
A human neuroblastoma cell line (SHSY-5Y) was used. Cell line was obtained from ATCC (CRL-2266) and cultured in 35 mm plates (Becton Dickinson, NJ).
The cells were grown to 90% confluence at 37° C. in an atmosphere of 5% CO2 and in Dulbecco's modified Eagle's medium supplemented with Glutamax (Gibco, Invitrogen, CA), 100 units/ml penicillin/streptomycin, 1×MEM nonessential amino acids and 10% fetal bovine serum (Gibco, Invitrogen, CA).
Cells were collected and sonicated in a buffer containing a cold lysis buffer with protease inhibitors (0.2 M NaCl, 0.1 M HEPES (4-(2-hydroxyethyl)-1-piperazineethanesulfonic acid), 10% glycerol, 200 mM NaF, 2 mM Na4P2O7, 5 mM EDTA (ethylenediaminetetraacetic acid), 1 mM EGTA (ethylene glycol tetraacetic acid), 2 mM DTT (dithiothreitol), 0.5 mM PMSF (phenylmethylsulfonyl fluoride), 1 mM Na3VO4 and Complete Protease Inhibitor Cocktail, Roche Diagnostics), centrifuged at 14,000×g 4° C. for 20 min and the supernatant was aliquoted and stored at −80° C. Total protein concentrations were determined using the BioRad Bradford protein assay (BioRad Laboratories).
Protein samples were mixed with Laemmli sample buffer, resolved onto Sodium Dodecyl Sulfate (SDS)-polyacrylamide gels and transferred to nitrocellulose membrane. The membranes were blocked with 5% milk, 0.05% Tween-20 in PBS (Phosphate-Buffered Saline) or TBS (Tris-Buffered Saline) followed by overnight incubation with the following primary antibodies: rabbit polyclonal anti-acetylated Histone 3 (acetyl K9) (Cell Signalling Technology), rabbit polyclonal anti-total Histone 3 (Millipore), in the corresponding buffer. All the antibodies were used at 1:1000 dilution except the mouse monoclonal anti-β-actin which was used at 1:50.000. Following two washes in TBS/Tween20 and one wash in TBS alone, immunolabeled protein bands were detected by using HRP-conjugated anti-rabbit or anti-mouse antibody (Santa Cruz Biotechnology; dilution 1:5.000) following an enhanced chemiluminescence system (ECL, GE Healthcare Bioscience, Buckinghamshire, UK), and autoradiographic exposure to HyperfilmtECL (GE Healthcare Bioscience). Quantity One™ software v.4.6.3 (Bio-Rad) was used for quantification.

[3] = tested on: carboxyl terminal fragment AβPP (C99); assay: AD-related markers in Tg2576 neurons: APP processing (C99); assay type: cell-based, mouse; details: Tg2576 primary neurons, compound concentration 50 nM
Protocol: The effects of the compounds on amyloid pathology were analysed in primary cultures after 21 days in-vitro (DIV) of neurons derived from the hippocampus and cortex of Tg2576 mouse embryos. Tg2576 mice express the human 695-aa isoform of APP (hAPP) containing the Swedish double mutation, which favours A3 production. Neurons were treated for two days and collected at day 3, 24 h after the last treatment. First it was analysed the effect of the compounds on hAPP processing by the amyloidogenic pathway by measuring the carboxyl terminal fragment AβPP (C99), which is the precursor of Aβ42. In this case the reported EC50, Table 2 (below), means a 50% decrease in C99 levels over basal (vehicle, no treatment).
To analyze APP-derived fragments and p-Tau levels in primary neuronal cultures, cells were collected in a buffer containing SDS (2%), Tris-HCl (10 mM, pH 7.4), protease inhibitors (1 mM phenylmethylsulfonyl fluoride (PMSF) and Complete Protease Inhibitor Cocktail: Roche Diagnostics) and phosphatase inhibitors (0.1 mM Na3VO4 and 1 mM NaF). The homogenates were sonicated for 2 min and centrifuged at 100,000×g for 1 h. Aliquots of the supernatant were frozen at […] and their protein concentrations determined by the Bradford method using the Bio-Rad protein assay (Bio-Rad, Hercules, Calif., USA). […]

[4] = tested on: AcH3; assay: In-vivo AcH3 in hippocampus of wild type mice; details: 1 h after single dose 40 mg/kg i.p.
Protocol: Another group of animals received the vehicle (1/1/8, v:v:v, DMSO/Tween 20/saline). One hour later, mice were sacrificed by cervical dislocation and their hippocampus was quickly dissected from the brains. Total tissue homogenates were obtained by homogenizing the hippocampus in a cold lysis buffer with protease inhibitors (0.2 M NaCl, 0.1 M HEPES, 10% glycerol, 200 mM NaF, 2 mM Na4P2O7, 5 mM EDTA, 1 mM EGTA, 2 mM DTT, 0.5 mM PMSF, 1 mM Na3VO4 and Complete Protease Inhibitor Cocktail, Roche Diagnostics). The homogenate was then centrifuged at 14,000×g at 4° C. for 20 min and the supernatant aliquoted and stored at −80° C. Total protein concentrations were determined using the BioRad Bradford protein assay (BioRad Laboratories). Protein samples were analyzed as described in the “in vitro” section.

**Q.** Which IC50 [1] does the source give for `CCCc1nn(C)c2c(=O)[nH]c(-c3cc(Cc4ccc(C(=O)Nc5ccccc5N)cc4)ccc3OCC)nc12` [Example 1-11, N-(2-aminophenyl)-4-[[4-ethoxy-3-(1-methyl-7-oxo-3-propyl-6H-pyrazolo[4,3-d]pyrimidin-5-yl)phenyl]methyl]benzamide] here?
**A.** 10 to 1000 nM

**Q.** What about the “AcH3: increment in Histone 3 acetylation level vs basal” value (“AcH3: increment … vs basal” below) ([2]; compound concentration 100 nM) of the same molecule?
**A.** ++ (basal x1.4≤(++)<basal x2)

**Q.** And the “AcH3: increment … vs basal” value ([2]; compound concentration 500 nM)?
**A.** ++ (basal x1.4≤(++)<basal x2)

**Q.** What about the “AcH3: increment … vs basal” value ([2]; compound concentration 1 μM) of the same molecule?
**A.** +++ (basal x2≤(+++)<basal x3)

**Q.** And the “decrease in C99 levels over basal” value [3]?
**A.** ++ (basal x0.2≤(++)<basal x0.4 (reduction between 20% and 40%))

**Q.** What about the “AcH3 increment vs basal” value [4] of the same molecule?
**A.** ++ (basal x1≤(++)<basal x2)
